Test results as given in patent publication US10550143B2, “C,O-spiro aryl glycoside compounds, preparation therefor and use thereof” (SHANGHAI INSTITUTE OF MATERIA MEDICA, CHINESE ACADEMY OF …, priority 2015, dated 2020).

Biological target: T1, human sodium-glucose cotransporter 2 (SGLT2) (Homo sapiens, UniProt P31639)
T1 construct: expressed in transfected cells; host or cells: NIH3T3 (mouse fibroblast) cells expressing hSGLT2
T1 sequence (P31639 1-672): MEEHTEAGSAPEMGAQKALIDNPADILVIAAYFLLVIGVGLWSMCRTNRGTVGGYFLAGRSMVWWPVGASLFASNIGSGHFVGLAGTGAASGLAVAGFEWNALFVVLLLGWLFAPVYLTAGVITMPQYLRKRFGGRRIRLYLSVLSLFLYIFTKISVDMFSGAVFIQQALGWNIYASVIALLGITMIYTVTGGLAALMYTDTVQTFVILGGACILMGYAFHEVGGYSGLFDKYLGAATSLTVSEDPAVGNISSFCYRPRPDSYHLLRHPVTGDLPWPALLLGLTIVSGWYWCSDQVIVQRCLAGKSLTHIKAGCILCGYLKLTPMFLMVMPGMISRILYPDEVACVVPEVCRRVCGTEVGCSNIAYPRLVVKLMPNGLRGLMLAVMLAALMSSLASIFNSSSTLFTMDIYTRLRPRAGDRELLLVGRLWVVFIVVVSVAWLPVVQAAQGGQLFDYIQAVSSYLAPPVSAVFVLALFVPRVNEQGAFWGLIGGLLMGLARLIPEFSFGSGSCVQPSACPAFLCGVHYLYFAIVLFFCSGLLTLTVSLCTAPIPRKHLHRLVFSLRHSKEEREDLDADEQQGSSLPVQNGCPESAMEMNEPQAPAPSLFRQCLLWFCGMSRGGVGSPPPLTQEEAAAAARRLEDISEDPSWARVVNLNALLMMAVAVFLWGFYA
Test: In vitro SGLT2 inhibition, methyl-α-D-[U-14C]glucopyranoside uptake in NIH3T3-hSGLT2 cells
Assay type: cell-based
Settings: for inhibition at 0.01 µM: SGLT2, 10 nM, read-out: % Inhibition rate ± SD 10 nM; for inhibition at 0.1 µM: SGLT2, 100 nM, read-out: % Inhibition rate ± SD 100 nM
Experimental: Inhibition of the compounds of formula I against human sodium-glucose cotransporter 2 (SGLT2) was determined experimentally and the experimental procedures were carried out as reference^1.
Methyl-α-D-[U-^14C] glucopyranoside (Perkin Elmer) Dimethylsulfoxide (Genebase, Prod No: 0231)
(1) Primary screening of hSGLT2 are conducted with two concentrations, 100 nM and 10 nM;
SGLT2 transports D-glucose at 1:1 sodium-glucose ratio, glucose is replaced by the non-metabolic and isotope labeled methyl-aD-[U-^14C] glucopyranoside and methyl-aD-glucopyranoside, and the amount of isotope transferred into the cells was determined.
1) 0.2% gelatin in a 96-well plate was put in a 37° C. incubator for further use;
2) NIH3T3-hSGLT2 cells were injected into 96-well plates, 40000/well, and 100 μL culture medium per well:
3) the fluid was changed in the next day, and sodium butyrate was added into medium at a final concentration of 2 mM;
4) wash the cells with 100 μL of KRH—Na^+ for 3 times and incubate cells with 50 μL for 30 minutes. Cells were changed to 50 μL of compound in KRH—Na^+, uptake buffer (KRH—Na^+ and methyl-α-D-[U-^14C]glucopyranoside and ⅙ mM methyl-α-D-glucopyranoside at 10 μL per well) was added; KRH-acetylcholine solution was used as background control instead of KRH-Na^+
5) washed with 100 μL PBS for 3 times, dried, 50 μL lysate and 150 μL scintillation fluid were added, the membrane was covered and flattened, shaken on a shaker to mix thoroughly, centrifuged at 1500 rpm at 4° C. for 3 min, taken out and read;
6) the results were analyses.
The inhibition rate (% Inhibiton) of each sample at each concentration was calculated by dividing the value of the compound well value minus the background value by the value of the DMSO control well value minus the background value.
IC50 is calculated as follows: […]
The y value is the activity or inhibition percent, the x value is the concentration of the corresponding compound, top (the maximum y value of the curve), bottom (the minimum y value of the curve).

| SMILES | inhibition at 0.01 µM | inhibition at 0.1 µM | IC50 (read-out: IC50 ± SD SGLT2) |
| --- | --- | --- | --- |
| Cc1ccc(Cc2ccc3c(c2)[C@]2(OC3)O[C@H](C)[C@@H](O)[C@H](O)[C@H]2O)cc1 [Example A1, (1S,3′R,4′S,5′S,6′R)-6′-methyl-6-(4-methylbenzyl)-3′,4′,5′,6′-tetrahydro-3H-spiro[isobenzofuran-1,2′-pyran]-3′,4′,5′-triol] | 21.2 ± 14.4% | 26.9 ± 9.1% | – |
| CCCc1ccc(Cc2ccc3c(c2)[C@]2(OC3)O[C@H](C)[C@@H](O)[C@H](O)[C@H]2O)cc1 [Example A3, (1S,3′R,4′S,5′S,6′R)-6′-methyl-6-(4-propylbenzyl)-3′,4′,5′,6′-tetrahydro-3H-spiro[isobenzofuran-1,2′-pyran]-3′,4′,5′-triol] | 23.1 ± 18.5% | 31 ± 9.7% | – |
| CC(C)c1ccc(Cc2ccc3c(c2)[C@]2(OC3)O[C@H](C)[C@@H](O)[C@H](O)[C@H]2O)cc1 [Example A4, (1S,3′R,4′S,5′S,6′R)-6′-methyl-6-(4-isopropylbenzyl)-3′,4′,5′,6′-tetrahydro-3H-spiro[isobenzofuran-1,2′-pyran]-3′,4′,5′-triol] | 34.1 ± 23.6% | 42.2 ± 3.5% | – |
| COc1ccc(Cc2ccc3c(c2)[C@]2(OC3)O[C@H](C)[C@@H](O)[C@H](O)[C@H]2O)cc1 [Example A5, (1S,3′R,4′S,5′S,6′R)-6′-methyl-6-(4-methoxybenzyl)-3′,4′,5′,6′-tetrahydro-3H-spiro[isobenzofuran-1,2′-pyran]-3′,4′,5′-triol] | 26 ± 14% | 28.9 ± 7.2% | – |
| CCOc1ccc(Cc2ccc3c(c2)[C@]2(OC3)O[C@H](C)[C@@H](O)[C@H](O)[C@H]2O)cc1 [Example A6, (1S,3′R,4′S,5′S,6′R)-6′-methyl-6-(4-ethyoxylbenzyl)-3′,4′,5′,6′-tetrahydro-3H-spiro[isobenzofuran-1,2′-pyran]-3′,4′,5′-triol] | 27 ± 15.7% | 27.6 ± 3.1% | – |
| Cc1ccc(Cc2ccc3c(c2)[C@]2(OC3)O[C@H](C)[C@@H](O)[C@H](O)[C@H]2O)s1 [Example A7, (1S,3′R,4′S,5′S,6′R)-6′-methyl-6-((5-methylthienyl)-2-methyl)-3′,4′,5′,6′-tetrahydro-3H-spiro [isobenzofuran-1,2′-pyran]-3′,4′,5′-triol] | 15.7 ± 25.2% | 27.9 ± 1.9% | – |
| CCc1ccc(Cc2ccc3c(c2)[C@]2(OC3)O[C@H](C)[C@@H](O)[C@H](O)[C@H]2O)s1 [Example A8, (1S,3′R,4′S,5′S,6′R)-6′-methyl-6-((5-ethylthienyl)-2-methyl)-3′,4′,5′,6′-tetrahydro-3H-spiro [isobenzofuran-1,2′-pyran]-3′,4′,5′-triol] | 30.4 ± 4.8% | 59.1 ± 5.3% | 285 ± 117 nM |
| CCCc1ccc(Cc2ccc3c(c2)[C@]2(OC3)O[C@H](C)[C@@H](O)[C@H](O)[C@H]2O)s1 [Example A9, (1S,3′R,4′S,5′S,6′R)-6′-methyl-6-((5-propylthienyl)-2-methyl)-3′,4′,5′,6′-tetrahydro-3H-spiro [isobenzofuran-1,2′-pyran]-3′,4′,5′-triol] | 34.7 ± 24% | 52.8 ± 15.5% | – |
| C[C@H]1O[C@]2(OCc3ccc(Cc4ccc(Cl)s4)cc32)[C@H](O)[C@@H](O)[C@@H]1O [Example A10, (1S,3′R,4′S,5′S,6′R)-6′-methyl-6-((5-chlorothienyl)-2-methyl)-3′,4′,5′,6′-tetrahydro-3H-spiro [isobenzofuran-1,2′-pyran]-3′,4′,5′-triol] | 28.1 ± 25.8% | 45.8 ± 10.2% | – |
| C[C@H]1O[C@]2(OCc3ccc(Cc4ccc(-c5ccc(F)cc5)s4)cc32)[C@H](O)[C@@H](O)[C@@H]1O [Example A11, (1S,3′R,4′S,5′S,6′R)-6′-methyl-6-((5-(4-fluorophenyl)thienyl)-2-methyl)-3′,4′,5′,6′-tetrahydro-3H-spiro[isobenzofuran-1,2′-pyran]-3′,4′,5′-triol] | 29.4 ± 11.1% | 31.4 ± 8.1% | – |
| C[C@H]1O[C@]2(OCc3ccc(Cc4ccc(-c5ccccc5)s4)cc32)[C@H](O)[C@@H](O)[C@@H]1O [Example A12, (1S,3′R,4′S,5′S,6′R)-6′-methyl-6-((5-phenylthienyl)-2-methyl)-3′,4′,5′,6′-tetrahydro-3H-spiro [isobenzofuran-1,2′-pyran]-3′,4′,5′-triol] | 20.4 ± 28.4% | 49.1 ± 20% | – |
| C[C@H]1O[C@]2(OCc3ccc(Cc4ccc(-c5ccccn5)s4)cc32)[C@H](O)[C@@H](O)[C@@H]1O [Example A13, (1S,3′R,4′S,5′S,6′R)-6′-methyl-6-((5-(2-pyridyl)thienyl)-2-methyl)-3′,4′,5′,6′-tetrahydro-3H-spiro[isobenzofuran-1,2′-pyran]-3′,4′,5′-triol] | 31 ± 30.5% | 46.9 ± 8.6% | – |
| C[C@H]1O[C@]2(OCc3ccc(Cc4ccc5ccccc5c4)cc32)[C@H](O)[C@@H](O)[C@@H]1O [Example A14, (1S,3′R,4′S,5′S,6′R)-6′-methyl-6-(naphthyl-2-methyl)-3′,4′,5′,6′-tetrahydro-3H-spiro [isobenzofuran-1,2′-pyran]-3′,4′,5′-triol] | 25.8 ± 15% | 55.8 ± 13.2% | – |
| C[C@H]1O[C@]2(OCc3ccc(Cc4cc5ccccc5s4)cc32)[C@H](O)[C@@H](O)[C@@H]1O [Example A15, (1S,3′R,4′S,5′S,6′R)-6′-methyl-6-(benzo[b]thiophene-2-methyl)-3′,4′,5′,6′-tetrahydro-3H-spiro[isobenzofuran-1,2′-pyran]-3′,4′,5′-triol] | 46.9 ± 4% | 50.8 ± 4.4% | – |

The next lines start with the values.

| inhibition at 0.01 µM | inhibition at 0.1 µM | IC50 (read-out: IC50 ± SD SGLT2) | SMILES |
| --- | --- | --- | --- |
| 27.5 ± 19.6% | 39 ± 16.1% | – | C[C@H]1O[C@]2(OCc3ccc(Cc4cc5ccccc5o4)cc32)[C@H](O)[C@@H](O)[C@@H]1O [Example A16, (1S,3′R,4′S,5′S,6′R)-6′-methyl-6-(benzo[b]furan-2-methyl)-3′,4′,5′,6′-tetrahydro-3H-spiro [isobenzofuran-1,2′-pyran]-3′,4′,5′-triol] |
| 91.8 ± 5.1% | 101 ± 2.2% | – | COc1ccc(Cc2cc3c(cc2Cl)CO[C@]32O[C@H](C)[C@@H](O)[C@H](O)[C@H]2O)cc1 [Example A25, (1S,3′R,4′S,5′S,6′R)-6′-methyl-6-(4-methoxybenzyl)-5-chloro-3′,4′,5′,6′-tetrahydro-3H-spiro[isobenzofuran-1,2′-pyran]-3′,4′,5′-triol] |
| 25 ± 9.3% | 20.7 ± 7.5% | – | C[C@H]1O[C@]2(OCc3cc(Cl)c(Cc4ccc(-c5ccccn5)s4)cc32)[C@H](O)[C@@H](O)[C@@H]1O [Example A33] |
| 16 ± 14.8% | 63.6 ± 2.4% | – | C[C@H]1O[C@]2(OCc3cc(F)c(Cc4ccc(-c5ccccn5)s4)cc32)[C@H](O)[C@@H](O)[C@@H]1O [Example A46, (1S,3′R,4′S,5′S,6′R)-6′-methyl-6-((5-(2-pyridyl)thienyl)-2-methyl)-5-fluoro-3′,4′,5′,6′-tetrahydro-3H-spiro[isobenzofuran-1,2′-pyran]-3′,4′,5′-triol] |
| 19.4 ± 0.5% | 50.2 ± 10.8% | – | C[C@H]1O[C@]2(OCc3cc(F)c(Cc4cc5ccccc5s4)cc32)[C@H](O)[C@@H](O)[C@@H]1O [Example A47, (1S,3′R,4′S,5′S,6′R)-6′-methyl-6-(benzo[b]thiophene-2-methyl)-5-fluoro-3,4′,5′,6′-tetrahydro-3H-spiro [isobenzofuran-1,2′-pyran]-3′,4′,5′-triol] |
| 13.1 ± 8.4% | 33.2 ± 10.1% | – | C[C@H]1O[C@]2(OCc3cc(F)c(Cc4cc5ccccc5o4)cc32)[C@H](O)[C@@H](O)[C@@H]1O [Example A48, (1S,3′R,4′S,5′S,6′R)-6′-methyl-6-(benzo[b]furan-2-methyl)-5-fluoro-3′,4′,5′,6′-tetrahydro-3H-spiro[isobenzofuran-1,2′-pyran]-3′,4′,5′-triol] |
